Assay results reported in ChEMBL document CHEMBL3817748, “Identification of novel peptoid agonists of fibroblast growth factor receptor using microarray-based screening” (Medchemcomm, 2016).
Activity calls are given as the source filed them. The rule behind the calls is not given here. *1 amine or outer side, *2 acyl side, *3 side chain or, on linkers, in order; H or OH if unused. Where a SMILES comes first, the peptide text is derived from it. [ ]: non-standard residue; d: D form. ξ: configuration not given here. Gly(N-(CH2)3N-pyrrolidone) = O=C(O)CNCCCN1CCCC1=O; Gly(N-CH2CH2C6H4-4Cl) = O=C(O)CNCCc1ccc(Cl)cc1; X1 = O=C(CN(Cc1cccc(C(F)(F)F)c1)[*:1])[*:2]; X3 = CC(c1ccccc1)N(CC(=O)[*:2])[*:1]; Nrpe = C[C@@H](NCC(=O)O)c1ccccc1; X2 = O=C(CN(CC1CCCO1)[*:1])[*:2]; NFurfurylGly = O=C(O)CNCc1ccco1; Gly(N-cPent) = O=C(O)CNC1CCCC1; NAllylGly = C=CCNCC(=O)O; Nphe = O=C(O)CNCc1ccccc1; Nlys = NCCCCNCC(=O)O; ξC = NC(CS)C(=O)O

Columns and labels:
Homo sapiens [1] = species on record: Homo sapiens; test: Binding affinity to Fc-tagged FGFR1alpha (unknown origin) at 100 uM after 1 hr by Texas-red labeled anti-Fc detection based microarray assay
Homo sapiens [2] = species on record: Homo sapiens; test: Binding affinity to Fc-tagged FGFR1alpha (unknown origin) at 50 uM after 1 hr by Texas-red labeled anti-Fc detection based microarray assay
Homo sapiens [3] = species on record: Homo sapiens; test: Binding affinity to Fc-tagged FGFR1alpha (unknown origin) at 25 uM after 1 hr by Texas-red labeled anti-Fc detection based microarray assay
Homo sapiens [4] = species on record: Homo sapiens; test: Binding affinity to Fc-tagged FGFR1alpha (unknown origin) at 150 uM by Texas-red labeled anti-Fc detection based fluorescence microscopic analysis
[5] = target: Fibroblast growth factor receptor 1 (Homo sapiens) (UniProt P11362); test: Agonist activity at FGFR1 in human MCF7 cells assessed as increase in Akt phosphorylation at 15 uM after 10 mins by Western blot analysis; assay type: cell-based
MCF7 = test: Agonist activity at FGFR1alpha in human MCF7 cells assessed as increase in ERK phosphorylation at 15 uM after 10 mins by Western blot analysis; assay type: cell-based
[6] = target: Fibroblast growth factor receptor 2 (Homo sapiens) (UniProt P21802); test: Agonist activity at FGFR2 in human MDA231 cells assessed as increase in Akt phosphorylation at 15 uM after 10 mins by Western blot analysis; assay type: cell-based
[7] = target: Fibroblast growth factor receptor 2 (Homo sapiens) (UniProt P21802); test: Agonist activity at FGFR2 in human MDA231 cells assessed as increase in ERK phosphorylation at 15 uM after 10 mins by Western blot analysis; assay type: cell-based
[8] = target: Fibroblast growth factor receptor 1 (Mus musculus) (UniProt P16092); test: Agonist activity at FGFR1 in mouse NIH-3T3 cells assessed as increase in Akt phosphorylation at 15 uM after 10 mins by Western blot analysis; assay type: cell-based; settings: NIH3T3
[9] = target: Fibroblast growth factor receptor 1 (Mus musculus) (UniProt P16092); test: Agonist activity at FGFR1 in mouse NIH-3T3 cells assessed as increase in ERK phosphorylation at 15 uM after 10 mins by Western blot analysis; assay type: cell-based; settings: NIH3T3
Homo sapiens [10] = species on record: Homo sapiens; test: Binding affinity to Fc-tagged FGFR1alpha (unknown origin) uM after 1 hr by FITC-labeled anti-Fc detection based microarray assay

Chain of Fibroblast growth factor receptor 2 (Homo sapiens) (P21802 22-821 limits assumed): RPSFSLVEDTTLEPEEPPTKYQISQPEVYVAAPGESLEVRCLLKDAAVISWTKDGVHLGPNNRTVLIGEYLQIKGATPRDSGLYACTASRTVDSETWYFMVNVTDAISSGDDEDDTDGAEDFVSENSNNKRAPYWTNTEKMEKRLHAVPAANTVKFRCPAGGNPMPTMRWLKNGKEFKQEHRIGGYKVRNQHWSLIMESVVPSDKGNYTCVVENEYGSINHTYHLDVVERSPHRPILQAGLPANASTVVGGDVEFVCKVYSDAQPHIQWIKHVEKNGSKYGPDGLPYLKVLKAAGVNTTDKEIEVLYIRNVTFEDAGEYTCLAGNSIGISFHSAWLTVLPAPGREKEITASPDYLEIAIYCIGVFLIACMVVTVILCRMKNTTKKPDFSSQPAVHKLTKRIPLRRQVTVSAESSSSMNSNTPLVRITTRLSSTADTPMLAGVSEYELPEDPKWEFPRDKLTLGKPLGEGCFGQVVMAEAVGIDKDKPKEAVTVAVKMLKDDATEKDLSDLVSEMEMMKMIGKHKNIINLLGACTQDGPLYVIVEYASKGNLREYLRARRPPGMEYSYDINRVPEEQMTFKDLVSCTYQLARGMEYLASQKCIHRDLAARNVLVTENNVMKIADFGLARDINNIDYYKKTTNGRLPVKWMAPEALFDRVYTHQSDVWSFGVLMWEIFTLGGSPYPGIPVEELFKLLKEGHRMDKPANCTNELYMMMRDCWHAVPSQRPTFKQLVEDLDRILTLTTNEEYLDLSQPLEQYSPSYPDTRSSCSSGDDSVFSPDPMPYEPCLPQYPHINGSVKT
Chain of Fibroblast growth factor receptor 1 (Homo sapiens) (P11362 22-822 limits assumed): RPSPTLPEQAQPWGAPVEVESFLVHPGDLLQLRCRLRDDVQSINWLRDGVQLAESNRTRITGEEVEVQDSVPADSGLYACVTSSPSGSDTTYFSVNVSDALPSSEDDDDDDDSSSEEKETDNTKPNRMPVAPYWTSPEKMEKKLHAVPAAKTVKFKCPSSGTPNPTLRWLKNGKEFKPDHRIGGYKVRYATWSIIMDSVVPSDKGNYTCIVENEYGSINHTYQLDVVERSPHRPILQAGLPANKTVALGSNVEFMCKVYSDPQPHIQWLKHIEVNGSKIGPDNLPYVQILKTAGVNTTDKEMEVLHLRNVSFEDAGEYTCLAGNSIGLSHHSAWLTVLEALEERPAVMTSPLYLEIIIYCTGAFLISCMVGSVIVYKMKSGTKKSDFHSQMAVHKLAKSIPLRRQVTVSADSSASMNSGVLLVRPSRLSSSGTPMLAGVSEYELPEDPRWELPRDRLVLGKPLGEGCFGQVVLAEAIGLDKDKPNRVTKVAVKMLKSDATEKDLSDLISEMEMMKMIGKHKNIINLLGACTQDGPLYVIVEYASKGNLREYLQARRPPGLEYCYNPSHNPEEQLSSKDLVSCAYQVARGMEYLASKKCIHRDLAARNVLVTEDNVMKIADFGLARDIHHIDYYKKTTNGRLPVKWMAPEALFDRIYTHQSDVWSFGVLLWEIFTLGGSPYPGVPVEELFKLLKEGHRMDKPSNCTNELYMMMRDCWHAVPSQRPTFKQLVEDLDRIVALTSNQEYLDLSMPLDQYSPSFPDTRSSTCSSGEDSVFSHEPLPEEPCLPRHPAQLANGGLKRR
Chain of Fibroblast growth factor receptor 1 (Mus musculus) (P16092 whole entry): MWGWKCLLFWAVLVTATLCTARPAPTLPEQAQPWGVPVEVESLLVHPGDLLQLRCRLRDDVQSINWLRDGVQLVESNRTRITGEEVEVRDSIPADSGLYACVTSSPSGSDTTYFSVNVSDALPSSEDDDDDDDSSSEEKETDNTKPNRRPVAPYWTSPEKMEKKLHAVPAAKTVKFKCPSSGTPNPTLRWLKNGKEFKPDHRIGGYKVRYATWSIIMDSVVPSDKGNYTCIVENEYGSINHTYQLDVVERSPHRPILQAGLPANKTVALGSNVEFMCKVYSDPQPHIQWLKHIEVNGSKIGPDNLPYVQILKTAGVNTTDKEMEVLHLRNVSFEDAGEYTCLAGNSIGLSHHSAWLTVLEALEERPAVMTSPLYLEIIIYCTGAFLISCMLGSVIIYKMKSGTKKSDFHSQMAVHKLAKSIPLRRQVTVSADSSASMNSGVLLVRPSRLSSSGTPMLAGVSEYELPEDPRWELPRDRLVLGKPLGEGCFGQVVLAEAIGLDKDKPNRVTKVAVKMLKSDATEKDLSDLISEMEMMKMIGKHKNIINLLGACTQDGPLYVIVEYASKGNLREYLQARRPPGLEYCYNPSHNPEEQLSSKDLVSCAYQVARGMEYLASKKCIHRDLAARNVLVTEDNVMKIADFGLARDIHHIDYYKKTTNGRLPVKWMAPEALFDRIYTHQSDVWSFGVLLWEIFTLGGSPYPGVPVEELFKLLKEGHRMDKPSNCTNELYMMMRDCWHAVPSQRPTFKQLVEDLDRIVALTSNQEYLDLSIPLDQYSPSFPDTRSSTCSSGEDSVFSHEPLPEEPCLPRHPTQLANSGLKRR

| Compound | Activity (Homo sapiens [1]) | Activity (Homo sapiens [2]) | Activity (Homo sapiens [3]) | Activity (Homo sapiens [4]) | Activity [5] | Activity [6] | Activity [7] | Activity [8] | Activity [9] | Activity (Homo sapiens [10]) | Activity (MCF7) |
| --- | --- | --- | --- | --- | --- | --- | --- | --- | --- | --- | --- |
| CC(NCC(=O)N(CC(=O)N(CC(=O)N(CC(=O)N(CC(=O)N(CC(=O)N(CCCCN)CC(=O)N(CCCCN)CC(=O)NC(CS)C(N)=O)Cc1cccc(C(F)(F)F)c1)Cc1cccc(C(F)(F)F)c1)CC1CCCO1)Cc1ccccc1)C1CCCC1)c1ccccc1 (stereo unspecified) | inactive | inactive |  |  |  |  |  |  |  |  |  |
| C=CCN(CC(=O)N(CC(=O)N(CCCN1CCCC1=O)CC(=O)N(CCCCN)CC(=O)N(CCCCN)CC(=O)N[C@@H](CS)C(N)=O)CC1CCCO1)C(=O)CN(C(=O)CN(Cc1cccc(C(F)(F)F)c1)C(=O)CNCCCN1CCCC1=O)[C@H](C)c1ccccc1 (stereo partly specified) (H-[Gly(N-(CH2)3N-pyrrolidone)][X1][Nrpe][NAllylGly][X2][Gly(N-(CH2)3N-pyrrolidone)][Nlys][Nlys]C-NH2) | Active | Active | Active | Active | Active | Active | Active | Active | Active | Active | Active |
| C=CCN(CC(=O)N(CC(=O)N(CCCCN)CC(=O)N(CCCCN)CC(=O)N[C@@H](CS)C(N)=O)Cc1ccco1)C(=O)CN(Cc1ccco1)C(=O)CN(CC1CCCO1)C(=O)CN(C(=O)CNCCc1ccc(Cl)cc1)C1CCCC1 (stereo partly specified) (H-[Gly(N-CH2CH2C6H4-4Cl)][Gly(N-cPent)][X2][NFurfurylGly][NAllylGly][NFurfurylGly][Nlys][Nlys]C-NH2) | Active | Active | Active |  | inactive | inactive | inactive | inactive | inactive | Active | inactive |
| C=CCN(CC(=O)N(CCCCN)CC(=O)N(CCCCN)CC(=O)N[C@@H](CS)C(N)=O)C(=O)CN(C(=O)CN(Cc1ccccc1)C(=O)CN(C(=O)CN(Cc1ccccc1)C(=O)CNC1CCCC1)C1CCCC1)[C@H](C)c1ccccc1 (H-[Gly(N-cPent)][Nphe][Gly(N-cPent)][Nphe][Nrpe][NAllylGly][Nlys][Nlys]C-NH2) | Active | Active | Active |  | Active | Active | Active | Active | Active | Active | Active |

The next lines start with results.

| Activity (Homo sapiens [1]) | Activity (Homo sapiens [2]) | Activity (Homo sapiens [3]) | Activity (Homo sapiens [4]) | Activity [5] | Activity [6] | Activity [7] | Activity [8] | Activity [9] | Activity (Homo sapiens [10]) | Compound | Activity (MCF7) |
| --- | --- | --- | --- | --- | --- | --- | --- | --- | --- | --- | --- |
| inactive | inactive |  |  |  |  |  |  |  |  | C=CCN(CC(=O)N(CC(=O)N(CC(=O)N(CC(=O)N(CCCCN)CC(=O)N(CCCCN)CC(=O)NC(CS)C(N)=O)C1CCCC1)Cc1ccco1)Cc1cccc(C(F)(F)F)c1)C(=O)CN(C(=O)CNCCc1ccc(Cl)cc1)C(C)c1ccccc1 (stereo unspecified) (H-[Gly(N-CH2CH2C6H4-4Cl)][X3][NAllylGly][X1][NFurfurylGly][Gly(N-cPent)][Nlys][Nlys][ξC]-NH2) |  |
| Active | Active | Active | Active | Active | Active | Active | Active | Active | Active | C=CCN(CC(=O)N(CC(=O)N(CCCCN)CC(=O)N(CCCCN)CC(=O)N[C@@H](CS)C(N)=O)[C@H](C)c1ccccc1)C(=O)CN(Cc1ccco1)C(=O)CN(C(=O)CN(Cc1cccc(C(F)(F)F)c1)C(=O)CNCc1ccccc1)C1CCCC1 (H-[Nphe][X1][Gly(N-cPent)][NFurfurylGly][NAllylGly][Nrpe][Nlys][Nlys]C-NH2) | Active |
